Data from EPA's aquatic toxicity sets.

Test system: Tetrahymena pyriformis
Assay: 48 h IGC50 (-log10 mol/L); higher = more toxic

| SMILES | 48 h IGC50 (-log10 mol/L) |
| --- | --- |
| Oc1cc(O)c(Cl)cc1Cl | 3.97 |
| NC(=O)c1ccc([N+](=O)[O-])cc1 | 3.18 |
| Nc1ccc([N+](=O)[O-])cc1[N+](=O)[O-] | 3.72 |
| NCCCCO | 2.02 |
| CCOC(=O)c1ccc(C)cc1 | 3.68 |
| NC(=O)COc1ccccc1 | 2.27 |
| CC(C)(C)c1cccc(O)c1 | 3.74 |
| O=[N+]([O-])c1cc(Cl)c(Cl)c(Cl)c1Cl | 4.78 |
| O=[N+]([O-])c1cnc(Cl)c([N+](=O)[O-])c1 | 5.64 |
| CCN(C)CC | 2.24 |
| C=COC(=O)c1ccccc1 | 3.08 |
| O=C1C=CC(=O)c2ccccc21 | 5 |
| Cc1cc(Br)cc(C)c1O | 4.16 |
| CCCCCCCCCCOC(=O)CC#N | 4.7 |
| CCCCCCCCCCC(=O)OC | 4.42 |
| C=CCS(=O)(=O)c1ccccc1 | 3.31 |
| Cc1cc(N)ncc1[N+](=O)[O-] | 3.37 |
| O=[N+]([O-])c1ccc(CBr)cc1 | 5.31 |
| COc1ccc(C=O)cc1O | 2.86 |
| C=CC(=O)OCCCCC | 3.54 |
| O=C(c1ccccc1)c1ccccc1 | 3.87 |
| CC(C)(C)C#N | 1.68 |
| O=[N+]([O-])c1ccccc1F | 3.23 |

| SMILES | 48 h IGC50 (-log10 mol/L) |
| --- | --- |
| CCOC(=O)C(Br)(Br)C(=O)OCC | 5.14 |
| COCCCN | 1.23 |
| c1ccc2nc3ccccc3nc2c1 | 4.4 |
| CCC(C)(O)c1ccccc1 (stereo not given) | 3.06 |
| CCCCC(Br)C(=O)O (stereo not given) | 3.46 |
| S=C=NC(c1ccccc1)c1ccccc1 | 6.05 |
| Cc1cc([N+](=O)[O-])ccc1Br | 4.16 |
| OC/C=C/c1ccccc1 | 2.92 |
| CCC(=O)CC | 1.54 |
| CC(C)(CN)CO | 2.08 |
| O=C(O)c1cc(Cl)ccc1O | 2.6 |
| C/C=C/C(C)=O | 3.54 |
| CCC(C)OC(C)=O (stereo not given) | 2.32 |
| COC(=O)C(C)(C)C | 1.72 |
| CCCCCC(=O)Cl | 3.34 |
| O=Cc1ccccc1Br | 3.48 |
| Nc1c([N+](=O)[O-])cc(Cl)cc1[N+](=O)[O-] | 4.15 |
| O=C(Oc1cccc(O)c1)c1ccccc1 | 4.11 |
| CCCC(O)Cc1ccccc1 (stereo not given) | 3.16 |
| CC(Cl)C(N)=O (stereo not given) | 1.56 |
| Cc1ccc(C#N)cc1 | 2.9 |
| Nc1cccc(I)c1 | 3.65 |
| O=C(O)c1ccccc1Cl | 2.55 |

| SMILES | 48 h IGC50 (-log10 mol/L) |
| --- | --- |
| Cc1ccc(O)c([N+](=O)[O-])c1 | 3.57 |
| CCCC(O)CC (stereo not given) | 2.15 |
| CCCCCCC(=O)c1ccccc1 | 4.56 |
| CCCCCCCCCN | 4.7 |
| CCCC(C)O (stereo not given) | 1.84 |
| CCCCCC#CC(=O)O | 2.94 |
| Nc1c(Cl)c(Cl)cc(Cl)c1Cl | 4.76 |
| C=CCC(C)O (stereo not given) | 1.48 |
| CCCCCCC(O)CC (stereo not given) | 3.36 |
| Cc1c(N)cccc1O | 2.45 |
| ClC/C=C/CCl | 3.77 |
| CC(C)(C)OC(=O)CCl | 3.85 |
| C=CC(=O)OCCCC | 3.52 |
| COc1cc(C(C)=O)ccc1O | 2.88 |
| CCCCC#CC(=O)OCC | 4.11 |
| CCCCC/C=C/CO | 3.37 |
| CCOC(=O)CC(C)C | 2.28 |
| CCCOC(=O)c1ccccc1 | 3.42 |
| COC(=O)CCl | 3.89 |
| Fc1cccc2ccccc12 | 3.39 |
| CCCCOc1ccc(O)cc1 | 3.7 |
| CCOC(=O)CCCCCBr | 3.59 |
| CCCCc1ccco1 | 3.44 |

| SMILES | 48 h IGC50 (-log10 mol/L) |
| --- | --- |
| CC(C)(C)c1ccc(Br)cc1 | 3.75 |
| C=C(C=O)CCCC | 4.07 |
| NC(=O)Oc1ccccc1 | 2.61 |
| CC(C)(Br)C(=O)C(C)(C)Br | 3.51 |
| O=[N+]([O-])c1cc(Br)c(O)c(Br)c1 | 4.36 |
| C=COC(=O)C=C | 4.42 |
| O=[N+]([O-])c1ccc(O)c(F)c1 | 4.07 |
| O=Cc1ccc(-c2ccccc2)cc1 | 4.12 |
| CCNc1ccccc1 | 3.07 |
| CCCCCCC#CC(=O)OC | 4.32 |
| Cc1ccc2ccccc2c1C=O | 4.23 |
| Oc1c(Cl)c(Cl)c(O)c(Cl)c1Cl | 5.11 |
| CCCCCc1ccc(O)cc1 | 4.58 |
| C=CC(=O)OCc1ccccc1 | 4.35 |
| CCC(Cl)C(=O)O (stereo not given) | 2.65 |
| O=[N+]([O-])c1ccccc1Br | 3.75 |
| CCCCCC#CC=O | 4.72 |
| CC(=O)c1ccc(C)[nH]1 | 2.17 |
| Cc1ccc(CCN)cc1 | 2.96 |
| C#CC(O)CCCC (stereo not given) | 2.73 |
| O=[N+]([O-])c1cc(Cl)c(Cl)c(Cl)c1 | 4.55 |
| c1ccnnc1 | 1.59 |
| C#CCNC | 2.02 |

| SMILES | 48 h IGC50 (-log10 mol/L) |
| --- | --- |
| CCC(=O)c1ccco1 | 2.23 |
| O=Cc1cc(C(F)(F)F)cc(Cl)c1F | 4.24 |
| Oc1ccc(Cl)c(O)c1 | 3.13 |
| C=C(C)C(=O)OCCC | 2.35 |
| C=CC(=O)OCCC | 3.53 |
| C=CC(=O)OC | 3.55 |
| CCOc1cccc(C=O)c1O | 3.85 |
| CCCCC/C=C/CCC=O | 4.21 |
| O=[N+]([O-])c1cccc(CO)c1 | 2.78 |
| C=CCc1ccccc1 | 3.19 |
| O=[N+]([O-])c1ccccc1-c1ccccc1 | 4.3 |
| N#CCc1ccc(O)cc1 | 2.62 |
| Cc1cccc(C)c1N | 2.57 |
| CCCCC(=O)c1ccccc1 | 3.56 |
| OCc1ccccc1-c1ccccc1 | 3.82 |
| CCC(=O)OCC(C)C | 2.31 |
| CCOC(=O)C(C)(C)Br | 3.15 |
| CC=C(C)C(=O)OCC | 2.5 |
| O=C(O)c1ccc(O)cc1 | 1.98 |
| O=Cc1ccc(Cl)o1 | 3.07 |
| CCCCOC(=O)/C=C/c1ccccc1 | 4.53 |
| COC(=O)CCCC(=O)OC | 1.83 |
| Cc1ccnc(C)c1 | 2.35 |

| SMILES | 48 h IGC50 (-log10 mol/L) |
| --- | --- |
| CCCOC(=O)CCC | 2.59 |
| CCCCC/C=C/C(=O)OC | 3.77 |
| Cc1ccc(Br)s1 | 3.65 |
| CC(C)(O)c1ccccc1 | 2.43 |
| NC(=O)CCl | 3.04 |
| O=C(O)CCCl | 2.67 |
| Nc1c([N+](=O)[O-])cccc1[N+](=O)[O-] | 3.84 |
| CCCCOc1ccc([N+](=O)[O-])cc1 | 4.42 |
| CC(C)(Br)C(=O)O | 2.42 |
| COC(=O)c1cccc(O)c1 | 2.95 |
| O=Cc1ccc(I)o1 | 3.33 |
| C=C(C)CCC(C)=O | 2.12 |
| CC(C)(C)c1cc([N+](=O)[O-])c(O)c([N+](=O)[O-])c1 | 4.8 |
| N#Cc1ccc[nH]1 | 2.42 |
| CC1CC(=O)O1 (stereo not given) | 2.24 |
| CCOC(=O)CCCCCCC(=O)OCC | 3.7 |
| O=[N+]([O-])c1cccc(Br)c1 | 4.03 |
| N#Cc1ccccc1[N+](=O)[O-] | 4.08 |
| NNC(=O)CCCCC(=O)NN | 1.63 |
| Cc1ccc(Br)cc1 | 3.47 |
